Results from patent publication US4211764A, “Gastric secretion stimulation with 2-amino-5-(2-aminoethyl)-1,3,4-thiadiozole” (priority 1978, dated 1980).
Read-outs that look alike come from different tables or passages of the source.

How the values were obtained:
gastric juice = assay: Acute Shay test (pylorus ligation); format: in vivo, rat; conditions: rats, 8 mg/kg intraperitoneally
Description: Twenty acute Shay tests were performed on male rats weighing 250 to 300 g. The pylorus of each of the animals was ligated 2 hours before the slaughter. The pH and volume of the gastric juice were determined. […] In the control group, pH of the gastric juice was 2.2, and the average HCl output was 0.12 mEq per animal. In the experimental animals, pH of the gastric juice was 1.6, and the HCl output was 0.41 mEq.

H2 -ceptors = H2 -ceptors (Canis lupus familiaris, UniProt P17124); assay: Gastric secretion in dogs with gastric fistula, intramuscular injection
Description: Chronic experiments were performed on male dogs weighing 20 to 25 kg and having a gastric fistula; prior to experiments, the animals were starved for 18 hours.
The gastric juice was analyzed for titratable acidity and proteolytic activity. The hydrochloric acid output was calculated in milliequivalents (mEq) and that of pepsin in milligrams.

H1 - and H2 -receptors = assay: Comparison of effects upon H1 - and H2 -receptors of different objects
Description: Changes in the heart rate were measured, dose-response curves were plotted, and pD2 values were calculated.

male rabbits = conditions: rabbit, in vivo
Description: | D. Allergic Action | (Arthus-Sakharov Phenomenon) | Daily injections to male rabbits | weighing 3.0 kg, during 6 to 7 days: | test group, hypodermic injections of | 0.1 ml of 1% solution | control group, injections of 0.1 ml | of normal horse serum

gastric secretion = format: in vivo, human
From the text: Special attention was paid to side effects and the reproductibility of the secretory response after repeated administrations of the drug.
The clinical investigation also helped to determine effective doses of the proposed preparation for submaximum and maximum tests and different forms of administration.

Chain of H2 -ceptors (P17124 whole entry): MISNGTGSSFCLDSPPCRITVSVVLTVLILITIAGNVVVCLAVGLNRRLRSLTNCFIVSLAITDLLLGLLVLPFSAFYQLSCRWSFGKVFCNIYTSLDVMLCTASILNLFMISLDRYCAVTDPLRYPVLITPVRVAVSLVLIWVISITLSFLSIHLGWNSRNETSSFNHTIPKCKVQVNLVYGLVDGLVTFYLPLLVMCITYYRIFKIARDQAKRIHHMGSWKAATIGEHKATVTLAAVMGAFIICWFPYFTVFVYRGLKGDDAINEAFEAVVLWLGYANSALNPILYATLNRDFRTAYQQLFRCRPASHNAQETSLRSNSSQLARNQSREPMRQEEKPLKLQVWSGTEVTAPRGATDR

For `NCCc1nnc(N)s1` [Thidazine, 2-amino-5-(2-aminoethyl)-1,3,4-thiadiazole], the “increase of output of hydrochloric acid after ligation of the pylorus” value (gastric juice) was “increased the output of hydrochloric acid more than threefold”, the HCl Output (gastric juice; control group 0.12 mEq per animal) was 0.41 mEq and the “pH of the gastric juice” value (gastric juice; control group 2.2) was 1.6. The “production of maximum level of hydrochloric acid secretion in the stomach” value (H2 -ceptors; animal (dog)) was “can produce a maximum level of hydrochloric acid secretion in the stomach of a dog”, the “effect upon arterial pressure, heart rate and general behavior” value (H2 -ceptors; dog, 3 mg/kg (maximum secretion dose)) was “no significant effect” and the maximum dose (H2 -ceptors; dogs, intramuscular) was 3.0 mg/kg. For the same compound, the “maximum hourly output of hydrochloric acid” value (H2 -ceptors; dogs, intramuscular) was 24 mEq per hour, the “maximum hourly output of pepsin” value (H2 -ceptors; dogs, intramuscular) was 110 mg per hour and the minimum active dose (H2 -ceptors; dogs, intramuscular) was 0.05 mg/kg. For the same compound, the “action upon H2 -receptors compared with H1 -receptors” value (H1 - and H2 -receptors) was “the action of thidazine upon H2 -receptors is stronger than its action upon H1 -receptors”, the “Allergic Action (Arthus-Sakharov Phenomenon)” value (male rabbits) was “Negative reaction” and the “dose for maximum secretion test” value (gastric secretion; hypodermic or intramuscular) was 1.6 mg/kg. The “dose for submaximum secretion test” value (gastric secretion; hypodermic or intramuscular) was 0.8 mg/kg, the “secretory activity compared with histamine and pentagastrin” value (gastric secretion; patients, adequate doses) was “close to histamine and pentagastrin” and the “effectiveness per os compared with parenteral” value (gastric secretion; patients, tablets or solutions) was “as effectively as parenterally”. The “dose for maximum secretion test” value (gastric secretion; per os) was 2.0 mg/kg and the “dose for submaximum secretion test” value (gastric secretion; per os) was 1.5 mg/kg.
